These results are taken from PMC9131871, “Impact of Micropolymorphism Outside the Peptide Binding Groove in the Clinically Relevant Allele HLA-C*14 on T Cell Responses in HIV-1 Infection” (Journal of Virology, 2022).

Assay [1] concerns the target HLA-C*14:03 (Homo sapiens, UniProt P10321, A176E/A330V/A35S/A97T/C350S/D114A/D33S/L171W/L180R/L218V/M285V/M309V/M331V/P208H/Q277E/Q291P/R121W/R243W/R45H/S123F/S297R/S48A/T329A/T363A/V319A). The assay is described as follows: HLA stabilization assay on RMA-S-C1403 cells. It is filed as cell-based. Conditions: for binding to HLA-C*14:03 (stabilization of surface HLA expression): 100 μM peptide, 26°C 1 h then 37°C 3 h, MAb DT-9 staining, flow cytometry, triplicate assays; for relative affinity in hierarchy of peptide-HLA-C*14 binding (HLA-C*14:03): peptide concentrations from 0.1 to 100 μM, 6 epitope peptides compared. From the text: (§1) We next sought to confirm the HLA-C*14:02/C*14:03 restriction of the HIV-1 peptides identified by LC-MS/MS. First, we tested their ability to bind to HLA-C*14:02 or HLA-C*14:03 using HLA stabilization assays. Of the 25 HIV-1 peptides, three Env peptides, Env SI8, Env AM11, and Env VM9, are located in variable regions V2 and V3. In addition, Pol AF10, Pol PF8, Pol VWL9, and Env YI9 are located in regions where high sequence variation is reported in the LANL database. Therefore, we excluded these peptides from further analysis. The other 18 peptides were synthesized and tested for binding to HLA-C*14:02/C*14:03 by analyzing their ability to stabilize surface HLA expression on TAP-defective RMA-S cell lines expressing HLA-C*14:02 (RMA-S-C1402) or HLA-C*14:03 (RMA-S-C1403). These RMA-S cell lines express equivalent levels of HLA-C*14:02 and HLA-C*14:03 on the cell surface at 26°C, and surface HLA expression declines to very low levels when the cells are warmed to 37°C in the absence of exogenously added stabilizing peptides (Fig. 2A). Peptide binding was determined by evaluating whether HLA-I expression was stabilized in the presence of 100 μM peptide.
(§2) FIG 2 HLA-C*14:02/14:03 binding of HIV-1 peptides eluted from NL4-3-infected .221-C1402 and .221-C1403 cells as assessed by HLA stabilization assay using RMA-S cell lines. (A) Histogram plots showing surface expression of HLA-C*14:02 or HLA-C*14:03 on RMA-S-C1402 or RMA-S-C1403 cells at 26°C and after cells cultured at 26°C had been warmed to 37°C for 3 h. MFI values of cells cultured at 26°C were 27.4 for HLA-C*14:02 and 28.1 for HLA-C*14:03. MFI values of cells cultured at 37°C for 3 h were 5.0 for HLA-C*14:02 and 6.54 for HLA-C*14:03. (B) Analysis of binding of 14 HIV-1 NL4.3 peptides identified by LC-MS/MS to HLA-C*14:02 (blue) or HLA-C*14:03 (red) as measured in HLA class I stabilization assays using RMA-S-C1402 or RMA-S-C1403 cells. (C) Analysis of binding of 9 additional variant peptides to HLA-C*14:02 (blue) or C*14:03 (red). For panels B and C, peptides were tested at a concentration of 100 μM. Results are plotted as percent surface HLA-I expression relative to that at 26°C, calculated as the ratio of the MFI of peptide-pulsed RMA-S-C1402 or RMA-S-C1403 cells to that of control (non-peptide-pulsed) cells kept at 26°C, multiplied by 100. Means and standard deviations (SDs) from triplicate assays are shown. Statistical analyses were performed by unpaired t test. The P values were corrected for multiple testing. *, P < 0.05 and q < 0.05; **, P < 0.01 and q < 0.03; ***, P < 0.001 and q < 0.005.
(§3) The relative affinity of peptide binding to HLA-C*14:02 and -C*14:03 was examined using RMA-S-C1402 and RMA-S-C1403 cells as previously described ([15]). Briefly, RMA-S cells were cultured at 26°C for 16 h, pulsed with peptides at 26°C for 1 h, and subsequently incubated at 37°C for 3 h. Staining of cell surface HLA-C molecules was performed with the HLA-C-reactive monoclonal antibody (MAb) DT-9 ([48]), a gift from Mary Carrington, NIH, and fluorescein isothiocyanate (FITC)-conjugated sheep anti-mouse IgG (Jackson ImmunoResearch). Staining data were acquired on a FACSCanto II instrument (BD Biosciences) and analyzed using FlowJo 10.7.1 software. Relative HLA expression was calculated as the ratio of the mean fluorescence intensity (MFI) of peptide-pulsed RMA-S-C1402 cells or RMA-S-C1403 cells to that of control (non-peptide-pulsed) cells kept at 26°C, multiplied by 100 to express the values for peptide-pulsed cells as a percentage of that for the control cells at 26°C.

The target in assay [2] is HLA-C*14:02 (Homo sapiens, UniProt P10321, A176E/A330V/A35S/A97T/C350S/D114A/D33S/L171W/L180R/L218V/M285V/M309V/M331V/P208H/Q277E/Q291P/R121W/R243W/S123F/S297R/S48A/T329A/T363A/V319A). The assay is described as follows: HLA stabilization assay on RMA-S-C1402 cells. It is filed as cell-based. The following applies: for binding to HLA-C*14:02 (stabilization of surface HLA expression): 100 μM peptide, 26°C 1 h then 37°C 3 h, MAb DT-9 staining, flow cytometry, triplicate assays; for relative affinity in hierarchy of peptide-HLA-C*14 binding (HLA-C*14:02): peptide concentrations from 0.1 to 100 μM, 6 epitope peptides compared.
Text: as §1, §2, §3

Regarding “RFDSRLAF [Nef RF8, HIV-1 NL4-3 Nef 184–191 peptide RFDSRLAF]”, the “binding to HLA-C*14:03 (stabilization of surface HLA expression)” value in assay [1] was “did not exhibit detectable binding”. The “binding to HLA-C*14:02 (stabilization of surface HLA expression)” value in assay [2] is “did not exhibit detectable binding”.
In the case of “ASGYIEAEV [Pol AV9, HIV-1 NL4-3 Pol 795–803 peptide …]”, in assay [1], the “binding to HLA-C*14:03 (stabilization of surface HLA expression)” value was “did not exhibit detectable binding”. Further, in assay [2], the “binding to HLA-C*14:02 (stabilization of surface HLA expression)” value is “did not exhibit detectable binding”.
For the sequence AFSPEVIPM [Gag AM9], the “relative affinity in hierarchy of peptide-HLA-C*14 binding (HLA-C*14:03)” value in assay [1] is given as “highest”. For the same sequence, in assay [2], the “relative affinity in hierarchy of peptide-HLA-C*14 binding (HLA-C*14:02)” value is “highest”.
For “FFREDLAF [Pol FF8, HIV-1 NL4-3 Pol 1–8 peptide FFREDLAF]”, the “binding to HLA-C*14:03 (stabilization of surface HLA expression)” value in assay [1] is “low”. For the same sequence, in assay [2], the “binding to HLA-C*14:02 (stabilization of surface HLA expression)” value is given as “low”.
For “VYYDPSKDL [Pol VYL9, HIV-1 NL4-3 Pol 472–480 peptide …]”, the “binding to HLA-C*14:03 (stabilization of surface HLA expression)” value in assay [1] is “low”. For the same sequence, the “binding to HLA-C*14:02 (stabilization of surface HLA expression)” value in assay [2] is recorded as “low”.
“FLGAAGSTM [Env FM9, HIV-1 NL4-3 Env 522–530 peptide …]”: the “binding to HLA-C*14:03 (stabilization of surface HLA expression)” value in assay [1] is “did not exhibit detectable binding”. The “binding to HLA-C*14:02 (stabilization of surface HLA expression)” value in assay [2] is “did not exhibit detectable binding”.
“FMTKALGI [Tat FI8, HIV-1 NL4-3 Tat 38–45 peptide FMTKALGI]”: the “binding to HLA-C*14:03 (stabilization of surface HLA expression)” value in assay [1] is recorded as “did not exhibit detectable binding”. In assay [2], the “binding to HLA-C*14:02 (stabilization of surface HLA expression)” value was “did not exhibit detectable binding”.
Consider AFHHVAREL [Nef AL9], for which the “relative affinity in hierarchy of peptide-HLA-C*14 binding (HLA-C*14:03)” value in assay [1] is on record as “lowest”. The “relative affinity in hierarchy of peptide-HLA-C*14 binding (HLA-C*14:02)” value in assay [2] is on record as “lowest”.
